# Test results taken from patent US20080305186A1, “Method and Composition for the Treatment of Cardiac Hypertrophy” (BOARD OF REGENTS, THE UNIVERSITY OF TEXAS SYSTEM, priority 2007, published 2008).
# Tested on: cardiac gene expression
# Experiment: Microarray analysis of cardiac gene expression (GeneChip Mouse Genome 430 2.0)
# Type: in vivo, mice
# Method: Microarray Sample Preparation and Analysis. Animal hearts were rapidly removed, and the atria and right ventricles were cut and immediately plunged into TRIzol Reagent (Life Technologies). Total RNA was isolated following the manufacturer's instructions, purified by phenol-chloroform extraction and then ethanol precipitation, and 20 μg further processed for microarray analysis. Briefly, cDNA synthesis, in vitro transcription, and labeling and fragmentation to produce the oligonucleotide probes were performed as instructed by the GeneChip manufacturer (Affymetrix). The probes were first hybridized to a test array (Affymetrix) and then to the GeneChip Mouse Genome 430 2.0 Array, using the GeneChip Hybridization Oven 640. The chips were washed in a GeneChip Fluidics Station 450 (Affymetrix), and the results were visualized with a GeneChip G7 scanner (Affymetrix). RMA normalization, pairwise comparisons, Student's t test and Benjamini and Hochberg correction were subsequently performed using GeneSifter (VizX Labs, Seattle, Wash.) and Spotfire DecisionSite 8.3 (Spotfire, Inc., Somerville, Mass.).
# Effects on Gene Expression Profile. […] One mouse heart was used for each array, and was performed in triplicate, generating a total of 12 arrays. GeneSifter was used to perform RMA normalization, pairwise comparisons of averaged signal intensity values, and Student's t-test with Benjamini and Hochberg correction, and Spotfire was used to perform pairwise comparisons. […] Additionally, genes that were altered between any two N or cardiac hypertrophy samples were removed, as these alterations most likely represented normal variations between mice.
# [1] = mouse heart, vs isoproterenol only (CH), CH vs normal −1.7
# [2] = mouse heart, vs isoproterenol only (CH), CH vs normal −1.8
# [3] = mouse heart, vs isoproterenol only (CH), CH vs normal −1.9
# [4] = mouse heart, vs isoproterenol only (CH), CH vs normal −2.0
# [5] = mouse heart, vs isoproterenol only (CH), CH vs normal −2.1
# [6] = mouse heart, vs isoproterenol only (CH), CH vs normal −2.4
# [7] = mouse heart, vs isoproterenol only (CH), CH vs normal −2.5
# [8] = mouse heart, vs isoproterenol only (CH), CH vs normal −2.6
# [9] = mouse heart, vs isoproterenol only (CH), CH vs normal −2.7
# [10] = mouse heart, vs isoproterenol only (CH), CH vs normal −2.8
# [11] = mouse heart, vs isoproterenol only (CH), CH vs normal −2.9
# [12] = mouse heart, vs isoproterenol only (CH), CH vs normal −3.0
# [13] = mouse heart, vs isoproterenol only (CH), CH vs normal −3.2
# [14] = mouse heart, vs isoproterenol only (CH), CH vs normal −3.3
# [15] = mouse heart, vs isoproterenol only (CH), CH vs normal −3.9
smiles,measurement,setting,value
C[C@H]1c2cccc(O)c2C(=O)C2=C(O)[C@]3(O)C(=O)C(C(N)=O)=C(O)[C@@H](N(C)C)[C@@H]3[C@@H](O)[C@@H]21 [doxycycline],"FC EphrinB3 (Efnb3), BQ175608",[1],1.6 fold
same,"FC Nuclear factor IB (Nfib), BB092799",[1],4.0 fold
same,"FC Preimplantation protein 4 (Prei4), BB550273",[1],3.6 fold
same,"FC Triple futional domain (PTPRF interacting) (Trio), BB794936",[1],3.0 fold
same,"FC cDNA, AK020162",[1],1.7 fold
same,"FC ATPase, Na+/K+ transporting, alpha 1 polypeptide (Atp1a1), BC025618","mouse heart, vs isoproterenol only (CH), CH vs normal −1.7, first BC025618 line",2.4 fold
same,"FC EST, BB126796",[2],6.5 fold
same,"FC EST, BB451134",[2],7.5 fold
same,"FC Metastasis suppressor 1 (Mtss1), BB326749",[2],2.0 fold
same,"FC Tetratricopeptide repeat domain (Ttc3), BB833716",[2],3.0 fold
same,"FC EST, BM941198",[3],3.2 fold
same,"FC Jumonji, AT rich interactive domain 1A (Rbp2 like) (Jarid1a), BB376407",[3],2.6 fold
same,"FC cDNA, BB006809",[3],2.1 fold
same,"FC Guanine nucleotide binding protein, alpha 12 (Gna12), NM_010302",[4],3.0 fold
same,"FC Zi finger and BTB domain containing 20 (Zbtb20), BB175650",[4],2.3 fold
same,"FC cDNA, BC002200",[4],4.8 fold
same,"FC ATPase, Na+/K+ transporting, alpha 1 polypeptide (Atp1a1), BC025618","mouse heart, vs isoproterenol only (CH), CH vs normal −2.0, second BC025618 line",2.7 fold
same,"FC Adenylate kinase 4 (Ak4), NM_009647",[5],2.2 fold
same,"FC Beta-tubulin gene M-beta-2 (Tubb2a), M28739",[5],1.7 fold
same,"FC C1q and tumor necrosis factor related protein 4 (C1qtnf4), NM_026161",[5],1.5 fold
same,"FC Cold inducible RNA binding protein (Cirbp), NM_007705",[5],1.7 fold
same,"FC Coronin, actin binding protein 1C (Coro1c), NM_011779",[5],2.1 fold
same,"FC Adrenergic receptor, alpha 1b (Adra1b), NM_007416","mouse heart, vs isoproterenol only (CH), CH vs normal −2.3",1.8 fold
same,"FC CXXC finger 5 (Cxxc5), AK015150",[6],2.1 fold
same,"FC DNA segment, Chr 9, ERATO Doi 256, expressed, BG066667",[6],3.3 fold
same,"FC Insulin degrading enzyme (Ide), AK014703",[6],2.1 fold
same,"FC Sno, strawbeny notch homolog 1 (Sno1), BE947961",[6],3.0 fold
same,"FC cDNA, BB748887",[6],3.9 fold
same,"FC B-cell translocation gene 2, anti-proliferative (Btg2), BG965405",[7],2.2 fold
same,"FC cDNA, BC026793",[7],2.5 fold
same,"FC Cbp/p300-interacting transactivator, with Glu/Asp-rich carboxy-terminal domain, 4 (Cited4), BC025116",[8],2.0 fold
same,"FC Desmoglein 2 (Dsg2), AB072269",[8],3.0 fold
same,"FC Heat shock protein, 84 kDa 1 (Hsp90ab1), BI154147",[8],8.7 fold
same,"FC Myocyte enhaer factor 2C (Mef2c), AI595932",[8],4.5 fold
same,"FC Restin-like 2 (Rsnl2), AK018895",[8],3.8 fold
same,"FC Jumonji domain containing 3 (Jmjd3), AW763746",[9],5.0 fold
same,"FC cDNA (similar to integrin beta 1 binding protein 3), AK009897",[9],4.0 fold
same,"FC ADP-ribosylation factor 2 (Arf2), AV023312",[10],2.5 fold
same,"FC Karyopherin (importin) beta 1 (Kpnb1), AW544889",[10],3.6 fold
same,"FC PPAR gamma coactivator-1beta protein (Ppargc1b), NM_133249",[11],4.4 fold
same,"FC SET and MYND domain containing 1 (Smyd1), NM_009762",[11],2.7 fold
same,"FC cDNA, AK013448",[11],2.6 fold
same,"FC Dual specificity phosphatase 8 (Dusp8), NM_008748",[12],2.8 fold
same,"FC GATA binding protein 4 (Gata4), NM_008092",[12],2.7 fold
same,"FC ATP synthase, H+ transporting, mitochondrial F1 complex, alpha subunit, isoform 1 (Atp5a1), C78762","mouse heart, vs isoproterenol only (CH), CH vs normal −3.1",1.7 fold
same,"FC Actin, beta, cytoplasmic (Actb), AW537707",[13],4.9 fold
same,"FC Methionine sulfoxide reductase B3 (Msrb3), BB277041",[13],7.2 fold
same,"FC Cyclin D1 (Ccnd1), BB538325",[14],2.7 fold
same,"FC Thymoma viral proto-oogene 1 (Akt1), M94335",[14],2.1 fold
same,"FC cDNA, BB283973",[14],4.1 fold
same,"FC cDNA, BB534971","mouse heart, vs isoproterenol only (CH), CH vs normal −3.5",2.9 fold
same,"FC cDNA, BB026304","mouse heart, vs isoproterenol only (CH), CH vs normal −3.8",4.1 fold
same,"FC Connexin 43 (alpha-1 gap jution) (Gja1), M63801",[15],3.6 fold
same,"FC Kinesin-like protein (Kif1b), D17577",[15],4.8 fold
same,"FC Kv channel-interacting protein 2a (Kcnip2), AF439339","mouse heart, vs isoproterenol only (CH), CH vs normal −4.4",3.7 fold
same,"FC Potassium voltage-gated channel, Isk-related subfamily, member 1 (Kcne1), NM_008424","mouse heart, vs isoproterenol only (CH), CH vs normal −4.6",1.5 fold
same,"FC Tumor rejection antigen gp96 (Tra1); heat shock protein 90 kDa beta (Grp94), member 1 (Hsp90b1), BE995678","mouse heart, vs isoproterenol only (CH), CH vs normal −9.4",8.0 fold
same,"FC Cadherin 13 (Cdh13), AK016527","mouse heart, vs isoproterenol only (CH), CH vs normal −10.0",9.8 fold
same,"FC cDNA (D site albumin promoter binding protein, Dbp), BB550183","mouse heart, vs isoproterenol only (CH), CH vs normal −11.5",12.0 fold
same,number of the 472 cardiac hypertrophy-specific Combo-altered genes also altered by the drug alone,statistical parameters lifted (average fold-changes irrespective of statistical measures),453
